From PMC6979384, “Characterization of the plant homeodomain (PHD) reader family for their histone tail interactions” (Epigenetics & Chromatin, 2020)

Columns and labels:
Assay in all cases: Histone peptide microarray
Assay type in all cases: binding, human
AIRE (PP) = details: GST-tagged AIRE (PP); for Array Heatmap signal, AIRE (PP): sheet "Array Heatmap", arrays performed twice, total replicate number n = 4
How it was run: (§1)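 Readout is array binding signal, reported as the mean and standard deviation over four replicates. Each purified GST-fused PHD domain was incubated at 0.5 μM with a library of 293 modified histone peptides.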

ING1 = details: GST-tagged ING1; for Array Heatmap signal, ING1: sheet "Array Heatmap", arrays performed twice, total replicate number n = 4
How it was run: as §1

TRIM66 (PB) = details: for Array Heatmap signal, TRIM66 (PB): sheet "Array Heatmap", GST-tagged TRIM66 (PB), arrays performed twice, total replicate number n = 4
How it was run: as §1

RAG2 = details: GST-tagged RAG2; for Array Heatmap signal, RAG2: sheet "Array Heatmap", arrays performed twice, total replicate number n = 4
How it was run: as §1

PHF8 = details: GST-tagged PHF8; for Array Heatmap signal, PHF8: sheet "Array Heatmap", arrays performed twice, total replicate number n = 4
How it was run: as §1

ING3 = details: GST-tagged ING3; for Array Heatmap signal, ING3: sheet "Array Heatmap", arrays performed twice, total replicate number n = 4
How it was run: as §1

KDM7A = details: GST-tagged KDM7A; for Array Heatmap signal, KDM7A: sheet "Array Heatmap", arrays performed twice, total replicate number n = 4
How it was run: as §1

KDM5B (1) = details: GST-tagged KDM5B (1); for Array Heatmap signal, KDM5B (1): sheet "Array Heatmap", arrays performed twice, total replicate number n = 4
How it was run: as §1

ING2 = details: GST-tagged ING2; for Array Heatmap signal, ING2: sheet "Array Heatmap", arrays performed twice, total replicate number n = 4
How it was run: as §1

ING5 = details: GST-tagged ING5; for Array Heatmap signal, ING5: sheet "Array Heatmap", arrays performed twice, total replicate number n = 4
How it was run: as §1

PHF2 = details: GST-tagged PHF2; for Array Heatmap signal, PHF2: sheet "Array Heatmap", arrays performed twice, total replicate number n = 4
How it was run: as §1

TAF3 = details: GST-tagged TAF3; for Array Heatmap signal, TAF3: sheet "Array Heatmap", arrays performed twice, total replicate number n = 4
How it was run: as §1

BAZ2B = details: GST-tagged BAZ2B; for Array Heatmap signal, BAZ2B: sheet "Array Heatmap", arrays performed twice, total replicate number n = 4
How it was run: as §1

ING4 = details: GST-tagged ING4; for Array Heatmap signal, ING4: sheet "Array Heatmap", arrays performed twice, total replicate number n = 4
How it was run: as §1

KDM5A (1) = details: GST-tagged KDM5A (1); for Array Heatmap signal, KDM5A (1): sheet "Array Heatmap", arrays performed twice, total replicate number n = 4
How it was run: as §1

MLL5 = details: GST-tagged MLL5; for Array Heatmap signal, MLL5: sheet "Array Heatmap", arrays performed twice, total replicate number n = 4
How it was run: as §1

DPF2 (PPC2W2) = details: for Array Heatmap signal, DPF2 (PPC2W2): sheet "Array Heatmap", GST-tagged DPF2 (PPC2W2), arrays performed twice, total replicate number n = 4
How it was run: as §1

CHD5 (PPCC) = details: for Array Heatmap signal, CHD5 (PPCC): sheet "Array Heatmap", GST-tagged CHD5 (PPCC), arrays performed twice, total replicate number n = 4
How it was run: as §1

KDM5B (3) = details: GST-tagged KDM5B (3); for Array Heatmap signal, KDM5B (3): sheet "Array Heatmap", arrays performed twice, total replicate number n = 4
How it was run: as §1

PHF21A = details: GST-tagged PHF21A; for Array Heatmap signal, PHF21A: sheet "Array Heatmap", arrays performed twice, total replicate number n = 4
How it was run: as §1

MORC3 (CW) = details: for Array Heatmap signal, MORC3 (CW): sheet "Array Heatmap", GST-tagged MORC3 (CW), arrays performed twice, total replicate number n = 4
How it was run: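 Binding read as mean relative signal from 4 replicates; microarray held 293 synthetic histone peptides with single or combinatorial PTMs. Each GST-tagged PHD reader was applied at 0.5 μM using the optimized Petell protocol.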

KDM4C (TTP) = details: for Array Heatmap signal, KDM4C (TTP): sheet "Array Heatmap", GST-tagged KDM4C (TTP), arrays performed twice, total replicate number n = 4
How it was run: as §1

PHRF1 (RP) = details: GST-tagged PHRF1 (RP); for Array Heatmap signal, PHRF1 (RP): sheet "Array Heatmap", arrays performed twice, total replicate number n = 4
How it was run: as §1

PHF23 = details: GST-tagged PHF23; for Array Heatmap signal, PHF23: sheet "Array Heatmap", arrays performed twice, total replicate number n = 4
How it was run: as §1

DIDO1 = details: GST-tagged DIDO1; for Array Heatmap signal, DIDO1: sheet "Array Heatmap", arrays performed twice, total replicate number n = 4
How it was run: as §1

CHD4 (PPCC) = details: for Array Heatmap signal, CHD4 (PPCC): sheet "Array Heatmap", GST-tagged CHD4 (PPCC), arrays performed twice, total replicate number n = 4
How it was run: as §1

BPTF (PB) = details: for Array Heatmap signal, BPTF (PB): sheet "Array Heatmap", GST-tagged BPTF (PB), arrays performed twice, total replicate number n = 4
How it was run: as §1

CHD5 (PCC) = details: for Array Heatmap signal, CHD5 (PCC): sheet "Array Heatmap", GST-tagged CHD5 (PCC), arrays performed twice, total replicate number n = 4
How it was run: as §1

PHF13 = details: GST-tagged PHF13; for Array Heatmap signal, PHF13: sheet "Array Heatmap", arrays performed twice, total replicate number n = 4
How it was run: as §1

SP140L = details: GST-tagged SP140L; for Array Heatmap signal, SP140L: sheet "Array Heatmap", arrays performed twice, total replicate number n = 4
How it was run: as §1

KDM5A (3) = details: GST-tagged KDM5A (3); for Array Heatmap signal, KDM5A (3): sheet "Array Heatmap", arrays performed twice, total replicate number n = 4
How it was run: as §1

[1] = sheet Array Heatmap, each array performed twice, total n = 4

H3R2me2a + K4me3: H3 1-20
Array Heatmap signal (histone peptide microarray) (AIRE (PP); [1]): 0.4826 | Array Heatmap signal (histone peptide microarray) (ING1; [1]): 0.5767 | Array Heatmap signal (histone peptide microarray) (TRIM66 (PB); GST-tagged TRIM66 (PB = PHD + Bromodomain), sheet Array Heatmap, each array performed twice, total n = 4): 0.6477 | Array Heatmap signal (histone peptide microarray) (RAG2; [1]): 0.449 | Array Heatmap signal (histone peptide microarray) (PHF8; [1]): 0.6195 | Array Heatmap signal (histone peptide microarray) (ING3; [1]): 0.5638 | Array Heatmap signal (histone peptide microarray) (KDM7A; [1]): 0.5712 | Array Heatmap signal (histone peptide microarray) (KDM5B (1); [1]): 0.7318 | Array Heatmap signal (histone peptide microarray) (ING2; [1]): 0.6869 | Array Heatmap signal (histone peptide microarray) (ING5; [1]): 0.4004 | Array Heatmap signal (histone peptide microarray) (PHF2; [1]): 0.6438 | Array Heatmap signal (histone peptide microarray) (TAF3; [1]): 0.3674 | Array Heatmap signal (histone peptide microarray) (BAZ2B; [1]): 0.4862 | Array Heatmap signal (histone peptide microarray) (ING4; [1]): 0.4758 | Array Heatmap signal (histone peptide microarray) (KDM5A (1); [1]): 0.4987 | Array Heatmap signal (histone peptide microarray) (MLL5; [1]): 0.7481 | Array Heatmap signal (histone peptide microarray) (DPF2 (PPC2W2); GST-tagged DPF2 (PPC2W2 = Dual PHD + C2W2-type Zn-finger), sheet Array Heatmap, each array performed twice, total n = 4): 0.6763 | Array Heatmap signal (histone peptide microarray) (CHD5 (PPCC); GST-tagged CHD5 (PPCC = Dual PHD + Dual Chromodomain), sheet Array Heatmap, each array performed twice, total n = 4): 0.5913 | Array Heatmap signal (histone peptide microarray) (KDM5B (3); [1]): 0.6231 | Array Heatmap signal (histone peptide microarray) (PHF21A; [1]): 0.4989 | Array Heatmap signal (histone peptide microarray) (MORC3 (CW); GST-tagged MORC3 (CW = CW-type Zn-finger), sheet Array Heatmap, each array performed twice, total n = 4): 0.8119 | Array Heatmap signal (histone peptide microarray) (KDM4C (TTP); GST-tagged KDM4C (TTP = Tandem Tudor domain + PHD), sheet Array Heatmap, each array performed twice, total n = 4): 0.6181 | Array Heatmap signal (histone peptide microarray) (PHRF1 (RP); [1]): 0.4573 | Array Heatmap signal (histone peptide microarray) (PHF23; [1]): 0.6448 | Array Heatmap signal (histone peptide microarray) (DIDO1; [1]): 0.8005 | Array Heatmap signal (histone peptide microarray) (CHD4 (PPCC); GST-tagged CHD4 (PPCC = Dual PHD + Dual Chromodomain), sheet Array Heatmap, each array performed twice, total n = 4): 0.5963 | Array Heatmap signal (histone peptide microarray) (BPTF (PB); GST-tagged BPTF (PB = PHD + Bromodomain), sheet Array Heatmap, each array performed twice, total n = 4): 0.4143 | Array Heatmap signal (histone peptide microarray) (CHD5 (PCC); GST-tagged CHD5 (PCC = PHD + Dual Chromodomain), sheet Array Heatmap, each array performed twice, total n = 4): 0.8429 | Array Heatmap signal (histone peptide microarray) (PHF13; [1]): 0.6893 | Array Heatmap signal (histone peptide microarray) (SP140L; [1]): 0.3488 | Array Heatmap signal (histone peptide microarray) (KDM5A (3); [1]): 0.8444

H3 (1-32): H3 1-32
Array Heatmap signal, AIRE (PP) (AIRE (PP)): 0.4331 | Array Heatmap signal, ING1 (ING1): 0.5053 | Array Heatmap signal, TRIM66 (PB) (TRIM66 (PB)): 0.7057 | Array Heatmap signal, RAG2 (RAG2): 0.2569 | Array Heatmap signal, PHF8 (PHF8): 0.3413 | Array Heatmap signal, ING3 (ING3): 0.4534 | Array Heatmap signal, KDM7A (KDM7A): 0.308 | Array Heatmap signal, KDM5B (1) (KDM5B (1)): 0.6889 | Array Heatmap signal, ING2 (ING2): 0.5998 | Array Heatmap signal, ING5 (ING5): 0.344 | Array Heatmap signal, PHF2 (PHF2): 0.514 | Array Heatmap signal, TAF3 (TAF3): 0.2681 | Array Heatmap signal, BAZ2B (BAZ2B): 0.4644 | Array Heatmap signal, ING4 (ING4): 0.4381 | Array Heatmap signal, KDM5A (1) (KDM5A (1)): 0.4672 | Array Heatmap signal, MLL5 (MLL5): 0.5257 | Array Heatmap signal, DPF2 (PPC2W2) (DPF2 (PPC2W2)): 0.6414 | Array Heatmap signal, CHD5 (PPCC) (CHD5 (PPCC)): 0.5395 | Array Heatmap signal, KDM5B (3) (KDM5B (3)): 0.4939 | Array Heatmap signal, PHF21A (PHF21A): 0.4399 | Array Heatmap signal, MORC3 (CW) (MORC3 (CW)): 0.4518 | Array Heatmap signal, KDM4C (TTP) (KDM4C (TTP)): 0.4465 | Array Heatmap signal, PHRF1 (RP) (PHRF1 (RP)): 0.6359 | Array Heatmap signal, PHF23 (PHF23): 0.5255 | Array Heatmap signal, DIDO1 (DIDO1): 0.6427 | Array Heatmap signal, CHD4 (PPCC) (CHD4 (PPCC)): 0.5584 | Array Heatmap signal, BPTF (PB) (BPTF (PB)): 0.3386 | Array Heatmap signal, CHD5 (PCC) (CHD5 (PCC)): 0.752 | Array Heatmap signal, PHF13 (PHF13): 0.5781 | Array Heatmap signal, SP140L (SP140L): 0.3492 | Array Heatmap signal, KDM5A (3) (KDM5A (3)): 0.5232

H2A (1-17): H2A 1-17 (SGRGKQGGKARAKAKTR; UniProt P0C0S8 2-18, looked up, fragment)
Array Heatmap signal, AIRE (PP) (AIRE (PP)): 0.3792 | Array Heatmap signal, ING1 (ING1): 0.4879 | Array Heatmap signal, TRIM66 (PB) (TRIM66 (PB)): 0.5087 | Array Heatmap signal, RAG2 (RAG2): 0.2183 | Array Heatmap signal, PHF8 (PHF8): 0.3118 | Array Heatmap signal, ING3 (ING3): 0.4033 | Array Heatmap signal, KDM7A (KDM7A): 0.3435 | Array Heatmap signal, KDM5B (1) (KDM5B (1)): 0.663 | Array Heatmap signal, ING2 (ING2): 0.6045 | Array Heatmap signal, ING5 (ING5): 0.2875 | Array Heatmap signal, PHF2 (PHF2): 0.4566 | Array Heatmap signal, TAF3 (TAF3): 0.223 | Array Heatmap signal, BAZ2B (BAZ2B): 0.3936 | Array Heatmap signal, ING4 (ING4): 0.3938 | Array Heatmap signal, KDM5A (1) (KDM5A (1)): 0.4209 | Array Heatmap signal, MLL5 (MLL5): 0.5078 | Array Heatmap signal, DPF2 (PPC2W2) (DPF2 (PPC2W2)): 0.6154 | Array Heatmap signal, CHD5 (PPCC) (CHD5 (PPCC)): 0.4702 | Array Heatmap signal, KDM5B (3) (KDM5B (3)): 0.4194 | Array Heatmap signal, PHF21A (PHF21A): 0.4214 | Array Heatmap signal, MORC3 (CW) (MORC3 (CW)): 0.3444 | Array Heatmap signal, KDM4C (TTP) (KDM4C (TTP)): 0.4226 | Array Heatmap signal, PHRF1 (RP) (PHRF1 (RP)): 0.4275 | Array Heatmap signal, PHF23 (PHF23): 0.4782 | Array Heatmap signal, DIDO1 (DIDO1): 0.6067 | Array Heatmap signal, CHD4 (PPCC) (CHD4 (PPCC)): 0.5048 | Array Heatmap signal, BPTF (PB) (BPTF (PB)): 0.2947 | Array Heatmap signal, CHD5 (PCC) (CHD5 (PCC)): 0.7396 | Array Heatmap signal, PHF13 (PHF13): 0.527 | Array Heatmap signal, SP140L (SP140L): 0.3296 | Array Heatmap signal, KDM5A (3) (KDM5A (3)): 0.3954
